Drawing on PubChem BioAssay (NCI), this text covers GI50 and TGI for 16 molecules.

Common to all, as to assay: DTP human tumour cell line panel, 48 h
Test [1] has as its system SK-MEL-28 melanoma.
Test [2] has as its system KM12 colon.
Test [3] concerns IGROV1 ovarian.
Test [4] deals with HCC-2998 colon.
Test [5] deals with U251 CNS.
Test [6] deals with SF-268 CNS.
Test [7] deals with SN12C renal.
The test system of test [8] is HL-60(TB) leukemia.
The test system of test [9] is COLO 205 colon.
Test [10] relates to HCT-15 colon.

Several values for one entry are separate records, joined by “and”; a condition that tells them apart may be missing. Equal values may be shown once.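 Dose response: 5 concentrations. Exposure: 48 h. Format: 96-well plates. Endpoint: linear interpolation; highest concentration if not reached. GI50: concentration for 50% inhibition of growth. At the TGI there is no net growth.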

With `CC(=O)N=c1ccc2nc3c(cc(N)c4ccccc43)oc-2c1`, the GI50 in test [1] is 1.75 µM; in [2], 1.44 µM; in test [3] it was 0.36 µM; in test [4], 0.503 µM; in [5], 1.43 µM; in test [6], 1.66 µM. For the same molecule, the GI50 was 1.39 µM in test [7], 0.279 µM in test [8], 1.11 µM in test [9] and 0.935 µM in test [10]. Also, the TGI was 3.26 µM in [1]; 2.87 µM in [2]; 1.89 µM in test [3]; 1.87 µM in [4]; 2.86 µM in test [5]; 3.43 µM in test [6]. For the same molecule, the total growth inhibition concentration (TGI) was determined as 2.9 µM in test [7], 6.8 µM in test [8], 2.44 µM in test [9] and 2.5 µM in test [10].
For the molecule `COc1cc(-n2cc(-c3ccc(Cl)cc3)[nH]c2=O)cc(OC)c1OC`, the GI50 in test [1] was more than 100 µM; in test [2], 41.3 µM; in [3] it was 35.5 µM; in [4], 47.4 µM; in test [5], 20.9 µM; in test [6], 30.4 µM. The GI50 was 37.7 µM in [7], more than 100 µM in test [8], more than 100 µM in test [9] and more than 100 µM in test [10]. In addition, the concentration for total growth inhibition (TGI) in test [1] was more than 100 µM; in test [2], more than 100 µM; in test [3], more than 100 µM; in [4], more than 100 µM; in [5] it was 45.1 µM; in test [6], 88.6 µM. Further, the TGI in test [7], in test [8], in test [9] and in test [10] was more than 100 µM each time.
For `CCOC(=O)c1c(C(F)(F)F)n([O-])c2ccc(OC)cc2[n+]1=O`, the GI50 in test [1] is 20.3 µM; in test [2] it was 7.99 µM; in [3], 4.69 µM; in test [4] it was 4.77 µM; in [5], 4.31 µM; in test [6], 4.65 µM. The GI50 was 2.84 µM in test [7], 3.01 µM in [8], 4.13 µM in test [9] and 3.88 µM in test [10]. Moreover, the concentration for total growth inhibition (TGI) in test [1] is more than 100 µM; in test [2], more than 100 µM; in test [3], 26.5 µM; in test [4], 35.1 µM; in [5] it was more than 100 µM; in [6] it was 72.5 µM. The concentration for total growth inhibition (TGI) is 22.2 µM in [7], 9.63 µM in [8], 16.2 µM in test [9] and more than 100 µM in [10].
With `N#CCCN(c1ccc(-c2nnc(NC(=O)CNNC(=O)CC(=O)Nc3ccccc3)s2)cc1)S(=O)(=O)c1ccccc1`, the TGI in test [1], in test [2], in test [3], in test [4], in test [5] and in test [6] was more than 100 µM in each case. Also, the TGI in test [7], in test [8], in test [9] and in [10] was more than 100 µM throughout.
For the molecule `O=C(COc1ccccc1)NS(=O)(=O)c1ccccc1`, the TGI in test [1], in [2], in test [3], in [4], in test [5] and in [6] was more than 100 µM throughout. The TGI in test [7], in test [8], in test [9] and in [10] was more than 100 µM in each case.
Regarding `C[C@@]12CCC(=O)C=C1CC[C@H]1C2=CC[C@]2(C)C1CC[C@@]2(C)O` (stereo partly drawn), the TGI in [1], in test [2], in test [3], in test [4], in [5] and in [6] was more than 100 µM in each case. The TGI in test [7] is more than 100 µM; in test [8], 77.9 µM; in test [9], more than 100 µM; in [10], more than 100 µM.
Turning to `O=C1OC(O)C(Oc2ccc(Cl)cc2)=C1Cl` (stereo not drawn), the TGI in test [1], in [2], in test [3], in [4], in [5] and in [6] was more than 100 µM each time. Also, the TGI in test [7], in [8], in [9] and in [10] was more than 100 µM in each case.
Consider `COc1ccc([N+](=O)[O-])c(S(=O)(=O)c2ccc(Cl)cc2)n1`, for which the GI50 in [1] is 3.57 µM; in test [2], 14 µM; in test [3], 12.2 µM; in test [4], 8.38 µM; in test [5] it was 8.69 µM; in test [6] it was 4.57 µM. Moreover, the GI50 in [7] was 3.82 µM; in test [8], 6.8 µM; in test [9], 1.96 µM; in test [10], 2.05 µM. The TGI in [1] was 14.2 µM; in test [2] it was 27.8 µM; in test [3], 31.3 µM; in test [4], 23.8 µM; in test [5], 21.6 µM; in test [6], 17.8 µM. Further, the concentration for total growth inhibition (TGI) in [7] came to 16.8 µM; in test [8], 41 µM; in test [9], 3.88 µM; in test [10] it was 5.22 µM.
Consider `CC(C)(C)c1ccc(C(O)c2ccc(C(C)(C)C)cc2)cc1`, for which the TGI worked out at 30.8 µM in test [1]; 29.1 µM in test [2]; 30.6 µM in test [3]; 35.6 µM in test [4]; 25.8 µM in test [5]; 34.6 µM in test [6]. Also, the TGI in test [7] was determined as 25.8 µM; in test [8] it was 35.6 µM; in test [9], 26.7 µM; in [10], 24.6 µM.
Consider `CSc1nc2sc3cc(Cl)ccc3n2c(=N)c1C#N`, for which the GI50 in test [1] is 11.6 µM; in test [2], 3.78 µM; in test [3], more than 49.2 µM; in test [4], 18.5 µM; in test [5], more than 55 µM; in test [6] it was 14 µM. Also, the GI50 was more than 100 µM in test [7], 7.71 µM in [8], 3.33 µM in test [9] and more than 100 µM in test [10]. The concentration for total growth inhibition (TGI) in [1] is more than 100 µM; in test [2] it was more than 72 µM; in [3], more than 88.4 µM; in test [4], more than 100 µM; in [5] it was more than 100 µM; in [6] it was more than 100 µM. In addition, the TGI in test [7], in test [8], in test [9] and in [10] was more than 100 µM throughout.
Take `NC1=N/C(=C2/CCNC(=O)c3[nH]c(Br)cc32)C(=O)N1`: the TGI in test [1] was more than 100 µM; in test [2] it was more than 100 µM; in test [3], more than 100 µM; in test [4], more than 100 µM; in test [5] it was more than 100 µM; in [6], 59.9 µM and > 69.6 µM. The total growth inhibition concentration (TGI) is more than 100 µM in [7]; 11.2 µM and 6.94 µM in test [8]; more than 100 µM in test [9]; more than 100 µM in [10]. The GI50 in [2] is more than 100 µM; in [3], 30.4 µM and 97 µM; in [9] it was 12.6 µM and 44.3 µM.
As to `NS(=O)(=O)c1ccc(CCN=C=S)cc1`, the GI50 was 2.59 µM in test [1]; 1.47 µM in test [2]; 2.1 µM in test [3]; 1.88 µM in [4]; 1.94 µM in test [5]; 2.83 µM in test [6]. Moreover, the GI50 in [7] is 2.17 µM; in [8] it was 3.32 µM; in test [9] it was 2.15 µM; in test [10], 1.3 µM. For the same molecule, the concentration for total growth inhibition (TGI) in test [1] worked out at 7.28 µM; in test [2] it was 3.06 µM; in test [3], 4.96 µM; in test [4], 3.55 µM; in test [5], 4.13 µM; in test [6], 10.1 µM. For the same molecule, the TGI turned out to be 5.14 µM in test [7], 11.2 µM in test [8], 4.52 µM in test [9] and 3.37 µM in test [10].
With `COC(=O)CCC/C=C\C[C@H]1C=CC(=O)/C1=C/C[C@@H](O)C/C=C\CC(F)(F)F`, the GI50 in test [1] is 2.08 µM; in test [2], 1.97 µM; in test [3] it was 2.78 µM; in test [4] it was 2 µM; in test [5] it was 1.79 µM; in test [6], 2.84 µM. Also, the GI50 in test [7] is 2.53 µM; in test [8], 1.93 µM; in [9], 2.03 µM; in test [10], 1.07 µM. Also, the TGI in test [1] is 4.77 µM; in test [2], 5.65 µM; in [3], 7.6 µM; in [4], 3.5 µM; in test [5], 4.32 µM; in test [6], 13.8 µM. For the same molecule, the TGI was 7.38 µM in test [7], 7.79 µM in test [8], 4.58 µM in test [9] and 3.29 µM in test [10].
With `O=C1CCC2(CC1)SCCCS2`, the total growth inhibition concentration (TGI) in test [1], in [2], in test [3], in test [4], in [5] and in test [6] was more than 100 µM each time. Besides, the TGI in test [7], in test [8], in test [9] and in test [10] was more than 100 µM throughout.
`CCOC(=O)/C(=C/c1ccc(C#N)cc1)N(CC)CC`: the TGI in [1], in test [2], in [3], in test [4], in test [5] and in [6] was more than 100 µM in each case. For the same molecule, the TGI in test [7], in test [8], in test [9] and in [10] was more than 100 µM in each case.
For `CC1OC(OCC2COC(O)(Oc3c(-c4ccc(O)c(O)c4)oc4cc(O)cc(O)c4c3=O)C(O)C2O)C(O)C(O)C1O` (stereo not drawn), the TGI in [1], in test [2], in test [3], in test [4], in [5] and in [6] was more than 100 µM each time. Besides, the TGI in test [7], in test [8], in test [9] and in test [10] was more than 100 µM each time.

What is called GI50 is the concentration that inhibits growth by half. By TGI is commonly meant the concentration at which net growth stops. Low readings indicate more potent growth arrest, high ones less potent growth arrest.
